Reference: patent US3970642A, “Process for the conversion of niddamycin to leucomycin A1, leucomycin A3, carbomycin B and other antibiotics and related 3-O-esters” (Abbott Laboratories, priority 1974, dated 1976)
≈ marks a conversion by molar mass, not a printed value.

Tests used:
Format in all cases: cell-based
[1] = tested on: Mycoplasma pneumoniae FH; experiment: Standard two-fold tube dilution test, activity against Mycoplasma pneumoniae FH; conditions: 144 h, PPLO broth, six days at 37°C, read-out: Minimum Inhibitory Concentration
Method: (§1) Three nid damycin and two dihydroniddamycin compounds were tested for their activity against Streptococcus pyogenes C203, and Diplococcus pneumoniae 6301 and Mycoplasma pneumoniae FH.
(§2) A standard two-fold tube dilution test was used. The medium inoculum were varied with each culture.
In the test for activity against Mycoplasma pneumoniae FH, 4.5 ml. portions of PPLO broth were used with 0.5 ml. of 1:100 dilution culture. The test was incubated for six days at 37°C.

[2] = tested on: Streptococcus pyogenes C203; experiment: Standard two-fold tube dilution test, activity against Streptococcus pyogenes C203; conditions: brain-heart infusion broth, 24 hours at 37°C, read-out: Minimum Inhibitory Concentration
Method: as §1, §2
In the test for activity against Streptococcus pyogenes C203, 5 ml. portions of brain-heart infusion broth were used with 0.1 ml. of 1:100 dilution culture. The test was incubated for 24 hours at 37°C.

[3] = tested on: Diplococcus pneumoniae 6301; experiment: Standard two-fold tube dilution test, activity against Diplococcus pneumoniae 6301; conditions: Streptococcus pneumoniae, brain-heart infusion broth and 20% horse serum, 24 hours at 37°C, read-out: Minimum Inhibitory Concentration
Method: as §1, §2
In the test for activity against Diplococcus pneumoniae 6301, 5 ml. portions of brain-heart infusion broth and 20% horse serum were used with 0.1 ml. of 1:100 dilution culture. The test was incubated for 24 hours at 37°C.

Row | MIC [1] [µg/mL] | MIC [2] [µg/mL] | MIC [3] [µg/mL] | SMILES
1 | 25 (≈ 28.7 µM) | 12.5 (≈ 14.3 µM) | – | COC(CC1CC(C)C(=O)C=CC=CCC(C)OC(=O)CC(OC(C)=O)C(OC)C1OC1OC(C)C(OC2CC(C)(O)C(OC(=O)CC(C)C)C(C)O2)C(N(C)C)C1O)OC (stereo not drawn) [Compound 6B, 3-(O)-Acetylniddamycin dimethyl acetal]
2 | 25 (≈ 30.1 µM) | 0.78 (≈ 0.94 µM) | < 1.56 | COC(CC1CC(C)C(=O)C=CC=CCC(C)OC(=O)CC(O)C(OC)C1OC1OC(C)C(OC2CC(C)(O)C(OC(=O)CC(C)C)C(C)O2)C(N(C)C)C1O)OC (stereo not drawn) [Compound 2, Niddamycin dimethyl acetal]
3 | > 100 | > 100 | > 100 | COC(CC1CC(C)C(=O)C=CC=CCC(C)OC(=O)CC(OC(C)=O)C(OC)C1OC1OC(C)C(OC2CC(C)(O)C(OC(=O)CC(C)C)C(C)O2)C(N(C)C)C1OC(C)=O)OC (stereo not drawn) [Compound 3B, 2',3-Di-(O)-acetylniddamycin dimethyl acetal]
4 | 50 (≈ 60.1 µM) | 6.2 (≈ 7.45 µM) | – | COC(CC1CC(C)C(O)C=CC=CCC(C)OC(=O)CC(O)C(OC)C1OC1OC(C)C(OC2CC(C)(O)C(OC(=O)CC(C)C)C(C)O2)C(N(C)C)C1O)OC (stereo not drawn) [Compound 4, 9-Dihydroniddamycin B dimethyl acetal]
5 | 50 (≈ 57.2 µM) | 25 (≈ 28.6 µM) | – | COC(CC1CC(C)C(O)C=CC=CCC(C)OC(=O)CC(OC(C)=O)C(OC)C1OC1OC(C)C(OC2CC(C)(O)C(OC(=O)CC(C)C)C(C)O2)C(N(C)C)C1O)OC (stereo not drawn) [Compound 8B, 3-(O)-Acetyl-9-dihydroniddamycin B dimethyl acetal]
